Measured values: patent US5786332A, “Cytokine restraining agents and methods of use in pathologies and conditions associated with altered cytokine levels” (Trega Biosciences, Inc., priority 1995, dated 1998)

What was measured:
Assay type in all cases: in vivo
Balb/c mice = experiment: Lipopolysaccharide-induced lethality (IP dosing); settings: 11 × 300 μg/mouse IP (3.3 mg total); 0.6 mg LPS
Protocol: These experiments were performed based on information reported by Rivier et al., Endocrinology 125:2800-2805 (1989), which is incorporated herein by reference. Adult female Balb/c mice were provided food and water ad libitum. Mice were injected IP every four hr for 40 hr with 30 to 300 μg EX-2, EX-3 or EX-4 in 0.2 ml saline (treated group) or with 0.2 ml saline, alone (control group) (10 mice per group). Immediately following the first injection, 0.6 mg LPS endotoxin in 0.2 ml saline was administered to each mouse. Following LPS injection, EX-2 or saline was administered to the treated mice or the control mice, respectively, every 4 hr for 36 hr.

Sprague-Dawley rats [1] = experiment: Interleukin-1β-induced hyperalgesia (paw pressure); settings: 1 μg IP; 2 hr after IL-1β intra plantar
Protocol: These experiments were performed using a modification of the methods described by Poole et al., Br. J. Pharmacol. 106:489-492 (1992); Follenfant et al., Br. J. Pharmacol. 98:41-43 (1989); and Randall and Sellito, Arch. Internatl. Pharmacodyn. 111:409-419 (1957), each of which is incorporated herein by reference. Adult male Sprague-Dawley rats (175-275 g) were tested for hyperalgesia by a paw pressure technique using variable pressure instrumentation (IITC Life Sciences; Woodland Hills, Calif.). Rats were acclimated to the housing environment and were handled for three days prior to beginning a training session. On the day before the hyperalgesia experiments was to begin, each rat was placed into a sock and two variable paw pressure tests were performed 15 min apart.
Approximately 5-10% of the rats were non-responders and were eliminated from further experiments.
Animals that responded to the paw pressure were pretreated by IP injection of various concentrations of EX-2 in a volume of 1 ml/kg (treated) or saline, alone (control). After 20 min, 100 μl of IL-1β (1U/100 μl) was administered to rats via intra plantar injection. Two hr after IL-1 administration, rats were subjected to two additional paw pressure tests and the increase in mm Hg of pressure that could be applied to the EX-2-treated rats as compared to the control rats was determined.

Sprague-Dawley rats [2] = experiment: Nephrotoxic serum glomerulonephritis, albuminuria; settings: EX-2 100 μg/kg per injection 3 times per day; 24 hr albumin excretion
Protocol: C. Glomerulonephritis: Male Sprague-Dawley rats (weight 194-248 g) were immunized by subcutaneous injection of 1 mg normal rabbit IgG (Sigma Chemical Co.) in Freund's complete adjuvant (Sigma Chemical Co.). EX-2 was administered 3 times per day (100 μg/kg per injection) throughout the duration of the experiment. Seven days later, the rats were injected with 1.5 ml of nephrotoxic serum iv via dorsal penile vein. Urine, plasma, and serum were collected before injection of nephrotoxic serum at 4, 6, 24, 48, and 96 hr thereafter. […] Albuminuria was quantified by immunoelectrophoresis.

Sprague-Dawley rats [3] = experiment: Cyclosporine-induced nephrotoxicity
Source text: B. Cyclosporine-Induced Nephrotoxicity: This experiment as performed to ascertain if EX-2 can mitigate the reduction in glomerular filtration rate (GFR) and renal blood flow, as well as the dysfunction in fluid and electrolyte homeostasis induced by immunosuppressive treatment with cyclosporine A.
In the first study, male Sprague-Dawley rats (n=43) with a weight range of 240-290 g at the initiation of the cyclosporine A (CsA) treatment were divided into 4 weight matched groups. The groups were as follows: (1) Control: no CsA, no EX-2, treatment only with CsA vehicle (PBS) PO and EX-2 vehicle (also PBS) IP; (2) CsA: treatment with CsA (50 mg/kg in PBS administered PO daily at 0830 hr for 9 days) and IP injections of PBS (Ex-2 vehicle); (3) CsA and 50 μg: CsA treatment identical to group 2 with the addition of EX-2 (50 μg/kg IP administered daily at 0800 and 1700 hr in EX-2 vehicle); and (4) CsA and 500 μg: CsA treatment identical to groups 2 and 3, and EX-2 treatment protocol similar to group 3 except that the dose of EX-2 was 500 μg/kg BW. After deep anesthesia was assured, the rats were cannulated in the trachea (PE 240) jugular vein, femoral artery, and bladder (PE 50 for the previous 3 cannulations).After cannulation, infusion of ^3 H-inulin was initiated 50 min prior to the measurement period to assess glomerular filtration rate, renal blood flow and plasma flow. Renal blood flow was determined by the inulin extraction technique. At the end of the study, the kidneys were removed for histological analysis.
In the second study, male Sprague-Dawley rats (n=31) with a weight range of 240-290 g at the time of initiation of the cyclosporine treatment were divided into 4 weight-matched groups. […] Renal hemodynamics were determined and extracellular fluid volumes were also assessed.
In the second study, where extracellular fluid volumes (ECF) were measured, there were no differences in ECF among control and treatment groups (27.6±1.9 in control, 27.5±1.7 in CsA and vehicle, 26.2±0.9 in CsA+200 μg/kg EX-2, and 25.7±1.4% in CsA+500 μg/kg EX-2). […]

Ac-Nle-Gln-His-(D)Phe-Arg-(D)Trp-Gly-NH2 [EX-2]
Inhibition of LPS-induced Lethality (increase in survival vs control) (Balb/c mice): 83% | Reduction in IL-1-induced Hyperalgesia (increase in tolerated paw pressure vs control) (Sprague-Dawley rats [1]): 125% | % Reduction of induced increase in Albumin (mg/day), Glomerulonephritis (Sprague-Dawley rats [2]): 62% | Renal blood flow in CsA-treated rats (Sprague-Dawley rats [3]; EX-2 IP twice daily with CsA, both studies): improved blood flow to values not different from control | GFR in CsA-treated rats (Sprague-Dawley rats [3]; compared to CsA and vehicle controls, both studies): significantly increased GFR | Urinary protein excretion in CsA-treated rats (Sprague-Dawley rats [3]; compared to CsA-treated rats): did not increase urinary protein excretion
